This experiment deals with GTPase KRas (Homo sapiens, UniProt P01116, C118A/G12C). In words: Biochemical Assay: The following assay conditions were employed: Coupled Nucleotide Exchange Assay: Purified GDP-bound KRAS protein (aa 1-169), containing both G12C and C118A amino acid substitutions and an N-terminal His-tag, was pre-incubated with a compound dose-response titration for 5 min in assay buffer (25 mM HEPES pH 7.4, 10 mM MgCl2, and 0.01% Triton X-100). Following compound pre-incubation, purified SOS protein (aa 564-1049) and GTP (Roche 10106399001) were added to the assay wells and incubated for an additional 30 min. To determine the extent of inhibition of SOS-mediated nucleotide exchange, purified GST-tagged cRAF (aa 1-149), nickel chelate AlphaLISA acceptor beads (PerkinElmer AL108R), and AlphaScreen glutathione donor beads (PerkinElmer 6765302) were added to the assay wells and incubated for 5 minutes. The assay plates were then read on a PerkinElmer EnVision Multilabel Reader, using AlphaScreen® technology, and data were analyzed using a 4-parameter logistic model to calculate IC50 values.
Sequence of GTPase KRas (P01116 whole entry G12C/C118A, the tested form may be a part): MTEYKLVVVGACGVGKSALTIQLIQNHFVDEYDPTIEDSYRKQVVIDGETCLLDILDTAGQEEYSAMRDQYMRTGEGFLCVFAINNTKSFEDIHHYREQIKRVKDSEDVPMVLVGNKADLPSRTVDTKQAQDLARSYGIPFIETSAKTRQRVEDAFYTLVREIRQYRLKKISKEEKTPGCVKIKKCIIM

As for `C=CC(=O)N1[C@H](C)CN(c2nc(=O)n(-c3c(C)ccnc3C(C)C)c3nc(-c4c(N)cccc4F)c(Cl)cc23)C[C@@H]1C` (atropisomer, axis not shown), the IC50 is 0.014 µM.

One may read the IC50 as the midpoint of a concentration-inhibition curve.

The values are drawn from ChEMBL document CHEMBL5729068, “Inhibitors of KRAS G12C and methods of using the same” (2022).
